From ChEMBL document CHEMBL3886225, “Morpholinylquinazolines” (2015)

Target: DNA-dependent protein kinase catalytic subunit (Homo sapiens, UniProt P78527)
Experiment: Biochemical Assay: The kinase assay was carried out in streptavidin-coated […] microtitre FlashPlates®. To this end, 1.5 μg of the DNA-PK/protein complex and 100 ng of biotinylated substrate, such as, for example, PESQEAFADLWKK biotin-NH2 (biotin-DNA-PK peptide), in a total volume of 36.5 μl (34.25 mM HEPES/KOH, 7.85 mM Tris-HCl, 68.5 mM KCl, 5 μM ATP, 6.85 mM MgCl2, 0.5 mM EDTA, 0.14 mM EGTA, 0.69 mM DTT, pH 7.4), were incubated at room temperature for 90 min with 500 ng of DNA from calf thymus, 0.1 μCi of 33P-ATP and 1.8% of DMSO per well with or without the test compound. The reaction was stopped using 50 μl/well of 200 mM EDTA. After incubation for a further 30 min at room temperature, the liquid was removed. Each well was washed three times with 100 μl of 0.9% sodium chloride solution. A non-specific reaction (blank value) was determined using 10 μM of a proprietary kinase inhibitor.

DNA-dependent protein kinase catalytic subunit, sequence (P78527 whole entry): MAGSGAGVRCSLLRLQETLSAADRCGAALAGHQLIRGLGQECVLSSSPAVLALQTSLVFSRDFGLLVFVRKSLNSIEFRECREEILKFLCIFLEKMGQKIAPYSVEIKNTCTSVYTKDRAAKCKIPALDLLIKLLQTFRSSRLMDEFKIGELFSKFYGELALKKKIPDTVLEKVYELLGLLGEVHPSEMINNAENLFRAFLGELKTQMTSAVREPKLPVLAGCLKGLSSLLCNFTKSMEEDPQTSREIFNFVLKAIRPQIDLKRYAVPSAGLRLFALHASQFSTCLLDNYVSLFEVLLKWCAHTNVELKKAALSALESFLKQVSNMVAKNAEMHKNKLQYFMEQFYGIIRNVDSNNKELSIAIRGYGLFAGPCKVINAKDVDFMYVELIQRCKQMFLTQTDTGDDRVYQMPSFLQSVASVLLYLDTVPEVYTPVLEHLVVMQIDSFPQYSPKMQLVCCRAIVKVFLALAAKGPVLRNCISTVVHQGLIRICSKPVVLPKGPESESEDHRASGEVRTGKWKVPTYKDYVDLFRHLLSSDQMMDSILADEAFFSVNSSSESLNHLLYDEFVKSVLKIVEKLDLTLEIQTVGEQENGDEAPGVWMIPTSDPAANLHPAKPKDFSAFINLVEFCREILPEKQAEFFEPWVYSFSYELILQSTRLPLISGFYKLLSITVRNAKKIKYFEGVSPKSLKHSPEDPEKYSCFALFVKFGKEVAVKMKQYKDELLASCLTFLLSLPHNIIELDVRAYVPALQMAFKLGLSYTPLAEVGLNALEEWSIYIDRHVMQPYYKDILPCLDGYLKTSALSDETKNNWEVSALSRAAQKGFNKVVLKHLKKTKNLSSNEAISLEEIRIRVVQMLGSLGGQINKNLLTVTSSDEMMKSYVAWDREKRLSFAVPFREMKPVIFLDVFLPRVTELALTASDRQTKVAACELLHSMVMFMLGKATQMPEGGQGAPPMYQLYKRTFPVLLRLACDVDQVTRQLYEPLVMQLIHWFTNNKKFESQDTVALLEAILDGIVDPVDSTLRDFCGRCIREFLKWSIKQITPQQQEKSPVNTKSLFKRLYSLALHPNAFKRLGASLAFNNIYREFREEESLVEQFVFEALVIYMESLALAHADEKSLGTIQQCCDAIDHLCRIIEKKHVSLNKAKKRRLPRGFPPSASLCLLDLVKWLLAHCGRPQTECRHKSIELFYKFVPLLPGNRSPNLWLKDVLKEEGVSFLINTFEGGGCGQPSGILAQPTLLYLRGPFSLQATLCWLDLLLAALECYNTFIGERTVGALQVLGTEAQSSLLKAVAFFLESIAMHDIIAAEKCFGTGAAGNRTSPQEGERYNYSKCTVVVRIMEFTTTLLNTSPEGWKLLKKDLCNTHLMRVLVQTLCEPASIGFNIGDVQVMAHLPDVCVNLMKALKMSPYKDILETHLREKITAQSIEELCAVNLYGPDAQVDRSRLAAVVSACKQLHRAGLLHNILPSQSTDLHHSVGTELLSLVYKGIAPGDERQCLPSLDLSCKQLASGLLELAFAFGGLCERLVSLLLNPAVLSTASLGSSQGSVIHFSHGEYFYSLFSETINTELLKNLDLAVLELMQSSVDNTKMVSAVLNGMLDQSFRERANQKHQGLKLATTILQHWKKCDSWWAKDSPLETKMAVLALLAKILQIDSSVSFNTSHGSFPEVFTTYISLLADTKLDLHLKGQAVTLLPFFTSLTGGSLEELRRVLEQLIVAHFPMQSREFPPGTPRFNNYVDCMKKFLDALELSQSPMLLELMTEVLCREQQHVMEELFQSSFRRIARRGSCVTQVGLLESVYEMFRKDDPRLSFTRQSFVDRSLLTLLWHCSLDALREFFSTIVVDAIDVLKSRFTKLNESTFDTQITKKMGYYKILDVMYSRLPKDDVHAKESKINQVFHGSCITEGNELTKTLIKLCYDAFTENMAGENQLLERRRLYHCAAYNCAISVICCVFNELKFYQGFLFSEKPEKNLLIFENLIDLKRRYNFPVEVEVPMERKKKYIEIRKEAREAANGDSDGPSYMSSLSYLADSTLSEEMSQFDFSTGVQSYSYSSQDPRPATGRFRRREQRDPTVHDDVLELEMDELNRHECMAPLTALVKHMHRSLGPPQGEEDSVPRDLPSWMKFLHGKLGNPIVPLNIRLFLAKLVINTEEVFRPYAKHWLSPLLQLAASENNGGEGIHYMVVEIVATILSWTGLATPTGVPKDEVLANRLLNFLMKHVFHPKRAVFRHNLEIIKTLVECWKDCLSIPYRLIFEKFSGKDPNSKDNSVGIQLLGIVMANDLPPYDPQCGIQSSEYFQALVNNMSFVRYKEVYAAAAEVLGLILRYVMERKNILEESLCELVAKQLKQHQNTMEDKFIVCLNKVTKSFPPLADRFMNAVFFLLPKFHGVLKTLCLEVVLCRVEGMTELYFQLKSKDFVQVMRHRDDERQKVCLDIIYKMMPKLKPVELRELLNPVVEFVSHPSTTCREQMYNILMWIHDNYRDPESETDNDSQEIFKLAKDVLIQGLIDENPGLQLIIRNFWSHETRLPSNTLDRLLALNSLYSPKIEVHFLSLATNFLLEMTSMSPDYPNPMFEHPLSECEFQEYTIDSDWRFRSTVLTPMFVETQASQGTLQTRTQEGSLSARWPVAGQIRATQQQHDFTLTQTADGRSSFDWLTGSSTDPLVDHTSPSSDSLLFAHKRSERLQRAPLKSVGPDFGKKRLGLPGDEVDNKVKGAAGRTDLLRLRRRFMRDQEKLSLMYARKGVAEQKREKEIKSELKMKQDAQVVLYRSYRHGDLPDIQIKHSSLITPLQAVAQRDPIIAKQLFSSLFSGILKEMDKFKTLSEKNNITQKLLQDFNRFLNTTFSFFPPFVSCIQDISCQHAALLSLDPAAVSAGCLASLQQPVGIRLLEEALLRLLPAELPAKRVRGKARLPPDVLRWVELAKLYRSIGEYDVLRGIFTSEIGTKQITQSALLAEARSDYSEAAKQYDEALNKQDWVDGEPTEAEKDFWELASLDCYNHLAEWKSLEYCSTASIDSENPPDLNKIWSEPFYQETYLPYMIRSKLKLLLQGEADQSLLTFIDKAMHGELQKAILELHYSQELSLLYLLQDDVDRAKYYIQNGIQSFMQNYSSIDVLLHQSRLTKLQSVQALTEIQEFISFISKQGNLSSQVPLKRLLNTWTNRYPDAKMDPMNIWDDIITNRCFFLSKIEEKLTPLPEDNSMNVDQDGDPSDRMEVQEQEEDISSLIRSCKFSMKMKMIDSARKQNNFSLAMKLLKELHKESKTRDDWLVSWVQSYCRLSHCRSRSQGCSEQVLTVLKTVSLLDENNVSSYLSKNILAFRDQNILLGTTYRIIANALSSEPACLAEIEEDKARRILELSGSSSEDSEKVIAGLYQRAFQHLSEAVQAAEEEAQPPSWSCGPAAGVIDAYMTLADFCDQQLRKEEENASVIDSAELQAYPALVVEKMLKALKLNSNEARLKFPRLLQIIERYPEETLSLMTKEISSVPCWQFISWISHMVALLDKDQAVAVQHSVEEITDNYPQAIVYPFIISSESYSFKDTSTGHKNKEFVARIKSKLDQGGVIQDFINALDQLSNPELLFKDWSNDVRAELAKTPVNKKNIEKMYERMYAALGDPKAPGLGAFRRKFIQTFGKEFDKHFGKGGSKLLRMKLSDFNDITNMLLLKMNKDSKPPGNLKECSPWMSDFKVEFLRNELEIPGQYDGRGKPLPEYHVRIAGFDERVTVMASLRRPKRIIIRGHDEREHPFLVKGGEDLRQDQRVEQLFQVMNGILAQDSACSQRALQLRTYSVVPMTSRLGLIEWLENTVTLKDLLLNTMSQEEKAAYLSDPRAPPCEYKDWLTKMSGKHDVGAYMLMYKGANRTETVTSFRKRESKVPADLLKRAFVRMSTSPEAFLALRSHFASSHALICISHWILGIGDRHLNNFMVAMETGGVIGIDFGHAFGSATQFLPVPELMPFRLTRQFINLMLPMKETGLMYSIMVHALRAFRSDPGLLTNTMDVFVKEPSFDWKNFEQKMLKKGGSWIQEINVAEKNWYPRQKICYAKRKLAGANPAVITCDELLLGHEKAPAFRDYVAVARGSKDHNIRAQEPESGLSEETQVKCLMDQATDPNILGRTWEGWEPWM

IC50: < 100 nM
Compound: O=S(=O)(NC1CCCN(c2nc(Cl)nc3cc(N4CCOCC4)ccc23)C1)c1cccs1 (stereo unspecified)
